Measurements as given in patent US11731946B2, “Broad spectrum antivirulence, anti-persistence compounds” (priority 2017, dated 2023).
In brackets after ≈: the same amount, converted by molar mass. Entries after “also recorded” stand apart in the source; their conditions may differ.

Experiments:
[1] = Solubility; assay type: physicochemical; settings: initial solubility studies; listed as D88
From the text: FIGS. 6A-6E show pharmacological properties of a representative group of MvfR inhibitors.

[2] = system: Acenitobacter baumanii; experiment: Activity against other bacterial pathogens (preliminary); assay type: cell-based
[3] = molecular target: T1, MvfR (Pseudomonas aeruginosa, UniProt Q9I4X0); experiment: Surface plasmon resonance (SPR) binding to purified MvfR co-inducer binding domain; parameters: species or system P. aeruginosa; settings: mean KD value, SPR; mean over the compounds named
T1 construct: made in house
T1 sequence (Q9I4X0 91-332): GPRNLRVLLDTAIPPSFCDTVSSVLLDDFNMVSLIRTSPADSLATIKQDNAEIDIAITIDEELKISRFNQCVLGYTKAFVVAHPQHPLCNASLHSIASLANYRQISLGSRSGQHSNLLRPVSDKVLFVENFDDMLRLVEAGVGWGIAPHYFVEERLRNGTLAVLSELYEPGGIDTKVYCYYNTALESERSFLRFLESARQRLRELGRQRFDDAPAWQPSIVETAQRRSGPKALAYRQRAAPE
Experimental: Compounds identified to interfere with MvfR were confirmed for the direct physical interaction with this protein. Using SPR, the percentage of compound's binding to the purified MvfR protein was analyzed and used to determine the binding parameters (KD, kon and koff)—thus determining the kinetic of interaction with MvfR.
The recombinant MvfR co-inducer binding domain was purified using Ni-NTA chromatography, as previously reported (see e.g., Xiao et al, Microbiology, 2006, 152:1679-1686; Starkey et al, PLoS Pathog. 2014, 10:e1004321; and Kefala et al, Acta. Crystallogr. Sect. F. Struct. Biol. Cryst. Commun. 2012, 68:695-697). The purified protein was immobilized with the amine coupling method at a target level of 5000 RU on Chip. SPR was performed according to previously reported procedures (see e.g., Starkey et al, PLoS Pathog. 2014, 10:e1004321; Maura et al, ACS Chemical Biology, 2017, 12:1435-1443; and Kitao et al, MBIO, in press). […] Table 3 lists the steady-state KD data measured by SPR.

[4] = system: MvfR regulon; experiment: pqsA gene expression (pqsA-GFP reporter); assay type: cell-based, P. aeruginosa; settings: Pseudomonas aeruginosa, read-out: pqsA @10 uM (%), compound at 10 uM
[5] = system: PA clinical isolate PA14; experiment: Biofilm formation (microtiter biofilm assay); assay type: cell-based, P. aeruginosa; settings: 10 μM
Experimental: (§1) Statistical significance to the control was assessed using one-way ANOVA+Dunnett's post-test. P<0.001-0.005.
Inhibition of biofilm formation was assessed by quantifying initiation of biofilm formation via assessment of surface adhesion of PA using the microtiter biofilm assay as described in O'Toole, G A. J. Vis. Exp. 2011, Microtiter Dish Biofilm Formation Assay. Using single optimized agents, this assay allowed for various concentrations of each compound and several incubation times to be investigated in an HTS manner.

[6] = system: Pseudomonas aeruginosa MDR clinical isolates; experiment: Pyocyanin production in MDR clinical isolates; assay type: cell-based; settings: 10 μM; listed as D88
Experimental: Percentage of pyocyanin production is presented in presence of 10 μM of D57 or D88 compounds. Tukey's multiple comparisons test p<0.0001.
Pyocyanin levels were determined by measuring OD520nm of chloroform-extracted cultures.

[7] = system: MvfR regulon; experiment: Quantification of pyocyanin (OD520nm of chloroform-extracted cultures); assay type: cell-based, P. aeruginosa; settings: Pseudomonas aeruginosa
[8] = system: adhesive intestinal E. coli; experiment: Activity against other bacterial pathogens (preliminary); assay type: cell-based
[9] = system: P. aeruginosa MDR clinical isolates; experiment: AT/P cell formation in MDR clinical isolates; assay type: cell-based; settings: 10 μM; MDR clinical isolates incl. mucoid strain from CF patients
Experimental: as §1
AT/P efficacy of compounds using CFU plating was assessed by growning over-night, cultures diluted 1:100 in triplicate in fresh LB medium in the presence or absence of inhibitor, and re-grown to an OD600 of 2.0 while shaking under aeration at 37° C. Before the antibiotic treatment, aliquots were plated to obtain reference colony counts. […] At 24-h and 48-h time points, the number of surviving bacteria were assessed by plating. The survival fraction of AT/P cells was calculated by dividing the number of surviving bacteria by the number of live bacteria that were present before the antibiotic treatment (reference datum) and expressed as a mean (±SD) of at least three replicate experiments. Using the same CFU plating assay, the efficacy of all compounds identified will be tested against additional antibiotic classes: b-lactams (ceftazidime, cefepime and imipenem), quinolones (ciprofloxacin, moxifloxacin, and levofloxacin), and aminoglycosides (gentamicin and tobramycicn).

N#Cc1ccc(NC(=O)C(F)C(=O)Nc2ccc(Oc3ccccc3)cc2)cc1 (stereo not drawn) [Compound 103]
solubility [1]: 190 µg/mL (≈ 488 µM)
potency against Acenitobacter baumanii [2]: potent
Kd [3]: 0.25 µM
activity at 10 µM [4]: 1.95%
activity against biofilm formation [5]: highly active
activity on pyocyanin production in MDR clinical isolates [6]: highly active; also recorded: confirmed
IC50 ([7]; read-out: IC50 pyocyanin (μM)): 0.95 µM
activity at 1 µM ([7]; read-out: pyocyanin @1 uM (%), compound at 1 uM): 28.1%
activity at 10 µM ([7]; read-out: pyocyanin @10 uM (%), compound at 10 uM): 4.4%
activity at 50 µM ([7]; read-out: pyocyanin @50 uM (%), compound at 50 uM): 5.58%
potency against adhesive intestinal E. coli [8]: potent
activity against antibiotic tolerant/persister cell formation [9]: highly active
